In patent US7772252B2, “Heterocyclic substituted carbonyl derivatives and their use as dopamine D3 receptor ligands” (Aventis Pharmaceuticals Inc., priority 2001, dated 2010):
Like-named read-outs stand apart in the source and are kept apart here.

Target: T1, cloned human dopamine D3 receptors (Homo sapiens, UniProt P35462)
T1 construct: expressed in transfected cells; membrane homogenate
Experiment: [N-Methyl-3H]Spiroperidol binding to cloned human dopamine D3 receptors
Method in brief: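 Stably transfected CHO cells expressing cloned human D3 receptor were used as membranes homogenized in 10% DMSO. Ligand was [N-methyl-3H]spiroperidol displacement.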

T1 sequence (P35462 whole entry): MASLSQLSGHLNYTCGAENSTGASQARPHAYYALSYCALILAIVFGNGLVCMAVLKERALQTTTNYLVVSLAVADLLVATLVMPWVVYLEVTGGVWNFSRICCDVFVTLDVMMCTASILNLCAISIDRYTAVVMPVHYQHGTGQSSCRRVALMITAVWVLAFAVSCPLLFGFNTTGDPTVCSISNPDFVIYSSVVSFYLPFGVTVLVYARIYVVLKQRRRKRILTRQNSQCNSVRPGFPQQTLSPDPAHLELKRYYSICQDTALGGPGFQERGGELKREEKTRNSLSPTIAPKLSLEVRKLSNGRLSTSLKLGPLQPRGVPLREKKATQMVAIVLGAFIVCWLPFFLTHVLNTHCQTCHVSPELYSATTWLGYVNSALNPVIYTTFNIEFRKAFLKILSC

Row | Structure (SMILES) | Ki (read-out: D3 Ki) [nM] | Ki (read-out: d3Ki) [nM]
1 | O=C(N[C@H]1CC[C@H](O)CC1)[C@@H]1C[C@H]1CN1CCN(c2nn(-c3ccc(F)cc3)c3ccsc23)CC1 [compound 832566] | 1.76 | 
2 | Cc1ccc2c(c1)c(C1CCN(C[C@@H]3C[C@H]3C(=O)NCCCn3ccnc3)CC1)nn2C [compound 834129] | 6.75 | 
3 | O=C(NC1CCNCC1)[C@@H]1C[C@H]1CN1CCC(c2csc3cc(C(F)(F)F)ccc23)CC1 [A002287513] | 3.57 | 
4 | O=C(NCCC1CCCCN1)[C@@H]1C[C@H]1CN1CCN(c2csc3cc(C(F)(F)F)ccc23)CC1 (mixture of isomers) [compound 832503] | 11.1 | 
5 | O=C([C@@H]1C[C@H]1CN1CCN(c2csc3cc(C(F)(F)F)ccc23)CC1)N1CCC(n2ccnc2)CC1 [compound 833513] | 43.1 | 
6 | O=C([C@@H]1C[C@H]1CN1CCC(c2noc3ccsc23)CC1)N1CCN(c2ccc(F)cc2)CC1 [compound 829465] | 80.3 | 
7 | COc1cc2c(cc1OC)CN(C(=O)[C@@H]1C[C@H]1CN1CCC(c3noc4ccsc34)CC1)CC2 [compound 831196] | 7.81 | 
8 | O=C(C1CC1CN1CCC(c2noc3ccsc23)CC1)N1CCC(CCN2CCCC2)CC1 (racemic) [compound 832198] | 5.81 | 
9 | CC1CCC(N2CC(CN3CCN(c4csc5cc(C(F)(F)F)ccc45)CC3)CC2=O)CC1 (racemic) [833953A] | 88.8 | 
10 | Cc1ccc(CN2CCC(NC(=O)[C@@H]3C[C@H]3CN3CCC(c4noc5ccsc45)CC3)CC2)cc1 [compound 833482] | 0.962 | 
11 | CC(C)(C)OC(=O)N1CCCCC1CCNC(=O)[C@@H]1C[C@H]1CN1CCN(c2csc3cc(C(F)(F)F)ccc23)CC1 (mixture of isomers) [compound 832500] | 161 | 
12 | CCCc1cc(N2CCN(CC3CC3C(=O)NC3CCC(C)CC3)CC2)nc(C(C)(C)C)n1 (racemic) [compound 817275] | 3.34 | 
13 | COc1ccc2c(c1)c(N1CCN(C[C@@H]3C[C@H]3C(=O)N3CCN(Cc4ccc(Cl)cc4)CC3)CC1)nn2C [compound 833124] | 26.8 | 
14 | CC(C)NC(=O)CN1CCN(C(=O)[C@@H]2C[C@H]2CN2CCN(c3csc4cc(C(F)(F)F)ccc34)CC2)CC1 [compound 832582] | 25 | 
15 | O=C(N[C@H]1CC[C@H](O)CC1)[C@@H]1C[C@H]1CN1CCC(c2cc3ccccc3s2)CC1 [compound 831950] | 5.48 | 
16 | O=C(NC1CCN(Cc2ccc(F)cc2F)CC1)[C@@H]1C[C@H]1CN1CCC(c2noc3ccsc23)CC1 [compound 833167] | 1.57 | 
17 | Cn1nc(C2CCN(C[C@@H]3C[C@H]3C(=O)NCCCc3cccnc3)CC2)c2cccc(C(F)(F)F)c21 [compound 833092] | 33.5 | 
18 | COc1ccc2c(c1)c(N1CCN(C[C@@H]3C[C@H]3C(=O)N3CCCC(Cn4ccnc4)C3)CC1)nn2C (mixture of isomers) [compound 834173] | 5.15 | 
19 | CC1(C)CC(NC(=O)C2CC2CN2CCC(c3noc4ccsc34)CC2)CC(C)(C)N1 (racemic) [compound 832187] | 19.1 | 
20 | C[C@H]1CC[C@H](NC(=O)[C@@H]2C[C@H]2CN2CCN(c3nn(-c4ccc(C(F)(F)F)cc4)c4ccsc34)CC2)CC1 [compound 832881] | 37.9 | 
21 | O=C(NC1CCN(CCc2cccc(Cl)c2)CC1)[C@@H]1C[C@H]1CN1CCC(c2noc3ccsc23)CC1 [compound 833748] | 1.38 | 
22 | COc1cccc2c(C3CCN(C[C@@H]4C[C@H]4C(=O)NCCCN4CCCCC4)CC3)nn(C)c12 [compound 834056] | 93.2 | 
23 | CCN(C(=O)CCCN1CCN(c2csc3cc(C(F)(F)F)ccc23)CC1)C1CCCCC1 [compound 826809] |  | 71

Row | Structure (SMILES) | Ki (read-out: D3 Ki) [nM] | Ki (read-out: d3Ki) [nM]
24 | COc1cccc2c(C3CCN(C[C@@H]4C[C@H]4C(=O)NCCCN4CCCCC4)CC3)noc12 [compound 832108] | 178 | 
25 | CCN1CCC(NC(=O)C2CC2CN2CCC(c3noc4ccsc34)CC2)CC1 (racemic) [compound 833372] | 1.04 | 
26 | O=C([C@@H]1C[C@H]1CN1CCN(c2csc3cc(C(F)(F)F)ccc23)CC1)N1CCC[C@H](CN2CCCCC2)C1 [A002438638] | 3.28 | 
27 | Cn1nc(N2CCN(C[C@@H]3C[C@H]3C(=O)N[C@H]3CC[C@H](C)CC3)CC2)c2ccccc21 [compound 833702] | 0.495 | 
28 | O=C([C@@H]1C[C@H]1CN1CCN(c2csc3cc(C(F)(F)F)ccc23)CC1)N1CCC(Cn2ccnc2)CC1 [compound 831958] | 13 | 
29 | O=C(NC1CCN(Cc2cc(Cl)ccc2Cl)CC1)C1CC1CN1CCC(c2noc3ccsc23)CC1 (racemic) [compound 832347] | 1.88 | 
30 | O=C([C@@H]1C[C@H]1CN1CCC(c2noc3ccsc23)CC1)N1CCC(O)CC1 [compound 830250] | 48.6 | 
31 | O=C([C@@H]1C[C@H]1CN1CCN(c2csc3cc(C(F)(F)F)ccc23)CC1)N1CCN(Cc2ccccc2)CC1 [compound 831883] | 48.1 | 
32 | O=C(C1CC1CN1CCC(c2noc3ccsc23)CC1)N1CCC(c2ccccc2)C1 (racemic) [compound 831602] | 19.6 | 
33 | O=C(NCCCn1nnc2ccccc21)C1CC1CN1CCC(c2noc3ccsc23)CC1 (racemic) [compound 831687] | 277 | 
34 | O=C(NCc1ccc2ccccc2c1)C1CC1CN1CCC(c2noc3ccsc23)CC1 (racemic) [compound 831454] | 1.86 | 
35 | O=C([C@@H]1C[C@H]1CN1CCN(c2csc3cc(C(F)(F)F)ccc23)CC1)N1CCC[C@H](CO)C1 [A002438636] | 13 | 
36 | O=C([C@@H]1C[C@H]1CN1CCC(c2noc3ccsc23)CC1)N1CCC(c2nc3ccccc3s2)CC1 [compound 832527] | 45.4 | 
37 | O=C(C1CC1CN1CCC(c2noc3ccsc23)CC1)N1CCN(CCCc2ccccc2)CC1 (racemic) [compound 832197] | 17.1 | 
38 | C[C@H]1CC[C@H](NC(=O)[C@@H]2C[C@H]2CN2CCC(c3nsc4cc(Br)ccc34)CC2)CC1 [compound 833703] | 1.92 | 
39 | CC1CCCCN1CCCNC(=O)[C@@H]1C[C@H]1CN1CCN(c2csc3cc(C(F)(F)F)ccc23)CC1 (mixture of isomers) [compound 832578] | 25.8 | 
40 | O=C(NC1CCN(Cc2ccc3ccccc3c2)CC1)C1CC1CN1CCC(c2noc3ccsc23)CC1 (racemic) [compound 831818] | 0.117 | 
41 | O=C([C@@H]1C[C@H]1CN1CCC(c2noc3ccsc23)CC1)N1CCN(CCc2cccs2)CC1 [compound 833163] | 17.5 | 
42 | O=C([C@H](O)CCN1CCC(c2noc3ccsc23)CC1)N1CCCCC1 [compound 830558] | 34.2 | 
43 | O=C(NCCc1ccccc1)[C@@H]1C[C@H]1CN1CCC(c2noc3ccsc23)CC1 [compound 830829] | 5.3 | 
44 | O=C(NCCCN1CCCC1)[C@@H]1C[C@H]1CN1CCN(c2csc3cc(C(F)(F)F)ccc23)CC1 [compound 831887] | 6.5 | 
45 | O=C(NCCCc1cccnc1)[C@@H]1C[C@H]1CN1CCC(c2noc3ccsc23)CC1 [compound 831195] | 1.84 | 
46 | O=C(NC1CCN(Cc2ccccc2Cl)CC1)C1CC1CN1CCC(c2noc3ccsc23)CC1 (racemic) [compound 831996] | 7.97 | 

Row | Structure (SMILES) | Ki (read-out: D3 Ki) [nM] | Ki (read-out: d3Ki) [nM]
47 | COc1cccc(C(=O)NNC(=O)C2CC2CN2CCC(c3noc4ccsc34)CC2)c1 (racemic) [compound 831811] | 819 | 
48 | C[C@H]1CC[C@H](NC(=O)[C@@H]2C[C@H]2CN2CCN(c3nn(-c4ccc(F)cc4)c4ccsc34)CC2)CC1 [compound 832850] | 0.264 | 
49 | O=C(NC1CCN(Cc2c(Cl)cccc2Cl)CC1)C1CC1CN1CCC(c2noc3ccsc23)CC1 (racemic) [compound 831821] | 24.1 | 
50 | CN(C(=O)CCCCN1CCN(c2csc3cc(F)ccc23)CC1)c1ccc(C(C)(C)C)cc1 [compound 822140] |  | 113
51 | O=C([C@@H]1C[C@H]1CN1CCC(c2noc3ccsc23)CC1)N1CCC(c2ccccc2)CC1 [compound 831193] | 23.8 | 
52 | O=C(N[C@H]1CC[C@H](O)CC1)[C@@H]1C[C@H]1CN1CCC(c2noc3ccsc23)CC1 [compound 830251] | 11.4 | 
53 | O=C(NCCCc1ccccc1)[C@@H]1C[C@H]1CN1CCC(c2nn(-c3ccc(C(F)(F)F)cc3)c3ccccc23)CC1 [compound 831312] | 214 | 
54 | O=C([C@@H]1C[C@H]1CN1CCN(c2csc3cc(C(F)(F)F)ccc23)CC1)N1CCC(CCN2CCCC2)CC1 [compound 833514] | 0.36 | 
55 | CC(C)(C)OC(=O)N1CCC(NC(=O)[C@@H]2C[C@H]2CN2CCN(c3csc4cc(C(F)(F)F)ccc34)CC2)CC1 [compound 832499] | 19.7 | 
56 | Cn1nc(N2CCN(C[C@@H]3C[C@H]3C(=O)N3CCC(n4ccnc4)CC3)CC2)c2sccc21 [compound 832207] | 54.8 | 
57 | Cc1cccc(CN2CCN(C(=O)C3CC3CN3CCC(c4noc5ccsc45)CC3)CC2)c1 (racemic) [compound 832158] | 0.37 | 
58 | COc1ccc2c(c1)c(N1CCN(C[C@@H]3C[C@H]3C(=O)N[C@H]3CC[C@H](C)CC3)CC1)nn2C [compound 831768] | 0.904 | 
59 | CC1CCC(NC(=O)C2CC2CN2CCN(c3nn(-c4ccccc4F)c4ccccc34)CC2)CC1 (racemic) [compound 830114] | 5.42 | 
60 | O=C([C@@H]1C[C@H]1CN1CCC(c2noc3ccc(C(F)(F)F)cc23)CC1)N1CCC(Cn2ccnc2)CC1 [A002200836] | 1.51 | 
61 | CC(C)(C)OC(=O)N1CCC(CNC(=O)[C@@H]2C[C@H]2CN2CCC(c3nn(-c4ccccc4)c4ccsc34)CC2)CC1 [A002439262] | 28.3 | 
62 | O=C(NC1CCN(Cc2ccc(Cl)c(Cl)c2)CC1)[C@@H]1C[C@H]1CN1CCC(c2cc3ccccc3s2)CC1 [compound 832716] | 7.54 | 
63 | CCC1CCC(NC(=O)C2CC2CN2CCN(Cc3ccccc3)CC2)CC1 (racemic) [compound 827241] | 89.5 | 
64 | COc1ccc(CCNC(=O)C2CC2CN2CCC(c3noc4ccsc34)CC2)cc1OC (racemic) [compound 832186] | 16.1 | 
65 | Cc1cn(CCCNC(=O)[C@@H]2C[C@H]2CN2CCC(c3noc4ccsc34)CC2)c(C)n1 [compound 831938] | 33 | 
66 | CCC1CCC(NC(=O)C2CC2CN2CCC(c3ccccc3Cc3ccccc3)CC2)CC1 (racemic) [compound 830132] | 9.26 | 
67 | O=C(NCC1CCNCC1)[C@@H]1C[C@H]1CN1CCC(c2nn(CC(F)(F)F)c3ccsc23)CC1 [A002440435A] | 305 | 
